Experiment: recombinant barcode read abundance after kanamycin selection (control-corrected) (log10(CPM+1)); higher = more efficient recombination; sequences stand for … in AGTGCAGAGAAAATCGGCCAGTTTTCTCTGCCTGCAGTCCGCATGCCGT…AGATTTATGCAGCGGACTGCCTTTCTCCCAAAGTGATAAACCGGACAGTATCATGGACCGGTTTTCCCGGTAATCCGTATTTGCAAGGTTGGTTTCACT; site = the 11-nt target
In short: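 Recombination efficiency was calculated from barcode counts at recombinant junctions, normalized to counts per million, averaged and corrected by the control. Each value is given as log10(CPM+1). The constructs were Gibson-cloned oligos (promoter, target, barcode, J23119-driven first 104 bridge RNA bases) in a vector with the remaining 73 bp and a T7-inducible recombinase, co-electroporated into E. coli with a donor plasmid and plated in duplicate on chloramphenicol/ampicillin LB agar (control) or chloramphenicol/ampicillin/kanamycin with 0.1 mM IPTG.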
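Note: IS621 recombinase and bridge RNA in Escherichia coli cells.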

“GTGTGTTCTTGGGTTCTAACCTGTTGCCT (site GTGTGTCCTAG)” and “GTGTGTTCTTGGGTTCTAACCTGTTGCCT (site GTGTGTGCTAG)” are within 0.2 log units of each other in “recombinant barcode read abundance (log10)” value: 0.0466 for the first, 0 for the second.

Compared with “GTGTGTTCTTGGGTTCTAACCTGTTGCCT (site GTGTGTTCTAG)”, “GTGTTGCCTTGGGTTCTAACCTGTTGCCT (site GAGTTGCCTAG)” is lower in “recombinant barcode read abundance (log10)” value: 0.726 for the first, 0.267 for the second.

Going from “GTGTTGCCTTGGGTTCTAACCTGTTGCCT (site GCGTTGCCTAG)” to “GTGTTGCCTTGGGTTCTAACCTGTTGCCT (site GGGTTGCCTAG)”, the “recombinant barcode read abundance (log10)” value falls from 0.392 to 0.0383.

Going from “GTGTTGCCTTGGGTTCTAACCTGTTGCCT (site GTGTTGCCTAG)” to “GTTACCTCTTGGGTTCTAACCTGTTGCCT (site CAAGGTCCTCC)”, the “recombinant barcode read abundance (log10)” value falls from 0.73 to 0.0556.

“GTTACCTCTTGGGTTCTAACCTGTTGCCT (site GTTACCTCTAG)” and “GTTAGCCCTTGGGTTCTAACCTGTTGCAT (site GTTAGCCCTAT)” are within 0.2 log units of each other in “recombinant barcode read abundance (log10)” value: 0.859 for the first, 0.928 for the second.

“GTTAGCCCTTGGGTTCTAACCTGTTGCAT (site TCACAGACTCG)” and “GTTAGCCCTTGGGTTCTAACCTGTTGCGG (site GTCAGCCCTCC)” are within 0.2 log units of each other in “recombinant barcode read abundance (log10)” value: 0.0525 for the first, 0.167 for the second.

First: GTTAGCCCTTGGGTTCTAACCTGTTGCGG (site GTTAGCCCTCC)
Second: GTTCCTGCTTGGGTTCTAACCTGTTGCCT (site GTTCCTCCTAG)
The “recombinant barcode read abundance (log10)” value of the first is higher: 1.79 for the first, 0.265 for the second.

Compared with “GTTCCTGCTTGGGTTCTAACCTGTTGCCT (site GTTCCTGCTAG)”, “GTTCGAGCTTGGGTTCTAACCTGTTGCCT (site GTTAGAGCTAG)” is lower in “recombinant barcode read abundance (log10)” value: 0.86 for the first, 0.276 for the second.

First: GTTCGAGCTTGGGTTCTAACCTGTTGCCT (site GTTCGAGCTAG)
Second: GTTCGAGCTTGGGTTCTAACCTGTTGCCT (site GTTGGAGCTAG)
The “recombinant barcode read abundance (log10)” value of the first is higher: 1.61 for the first, 0.114 for the second.

Compared with “GTTCGAGCTTGGGTTCTAACCTGTTGCCT (site GTTTGAGCTAG)”, “GTTCGAGCTTGGGTTCTAACCTGTTGCGG (site ATTCGAGCTCC)” is higher in “recombinant barcode read abundance (log10)” value: 0.153 for the first, 1.74 for the second.

Going from “GTTCGAGCTTGGGTTCTAACCTGTTGCGG (site GTTCGAGCTCC)” to “GTTGACCCTTGGGTTCTAACCTGTTGCCT (site GTAGACCCTCG)”, the “recombinant barcode read abundance (log10)” value falls from 2.49 to 0.0195.

Going from “GTTGACCCTTGGGTTCTAACCTGTTGCCT (site GTTGACCCTAG)” to “GTTGGCCCTTGGGTTCTAACCTGTTGCCT (site GATGGCCCTAG)”, the “recombinant barcode read abundance (log10)” value falls from 2.2 to 0.579.

“GTTGGCCCTTGGGTTCTAACCTGTTGCCT (site GCTGGCCCTAG)” and “GTTGGCCCTTGGGTTCTAACCTGTTGCCT (site GGTGGCCCTAG)” are within 0.2 log units of each other in “recombinant barcode read abundance (log10)” value: 0.306 for the first, 0.152 for the second.

First: GTTGGCCCTTGGGTTCTAACCTGTTGCCT (site GTTGGCCCTAG)
Second: GTTGGTCCTTGGGTTCTAACCTGTTGCGT (site GTGAGTCCTAC)
The “recombinant barcode read abundance (log10)” value of the first is higher: 1.94 for the first, 0.136 for the second.

First: GTTGGTCCTTGGGTTCTAACCTGTTGCGT (site GTTGGTCCTAC)
Second: GTTTAAACTTGGGTTCTAACCTGTTGCCT (site GTTTAAACTAG)
The “recombinant barcode read abundance (log10)” value of the first is higher: 2.76 for the first, 0.809 for the second.

“GTTTAAACTTGGGTTCTAACCTGTTGCCT (site GTTTACGCTAG)” and “GTTTACGCTTGGGTTCTAACCTGTTGCCT (site GTTTAAACTAG)” are within 0.2 log units of each other in “recombinant barcode read abundance (log10)” value: 0.0493 for the first, 0.0797 for the second.

Going from “GTTTACGCTTGGGTTCTAACCTGTTGCCT (site GTTTACGCTAG)” to “GTTTCTACTTGGGTTCTAACCTGTTGCTA (site ATTTCTACTTC)”, the “recombinant barcode read abundance (log10)” value falls from 1.96 to 0.128.

First: GTTTCTACTTGGGTTCTAACCTGTTGCTA (site GTTTCTACTTA)
Second: GTTTCTTCTTGGGTTCTAACCTGTTGCCT (site GATTCTTCTAG)
The “recombinant barcode read abundance (log10)” value of the first is lower: 0.0482 for the first, 0.304 for the second.

“GTTTCTTCTTGGGTTCTAACCTGTTGCCT (site GCTTCTTCTAG)” and “GTTTCTTCTTGGGTTCTAACCTGTTGCCT (site GGTTCTTCTAG)” are within 0.2 log units of each other in “recombinant barcode read abundance (log10)” value: 0.0824 for the first, 0.171 for the second.

“GTTTCTTCTTGGGTTCTAACCTGTTGCCT (site GTTTCTTCTAG)” and “GTTTGATCTTGGGTTCTAACCTGTTGCCT (site GTTTGATCTAG)” are within 0.2 log units of each other in “recombinant barcode read abundance (log10)” value: 0.0189 for the first, 0.172 for the second.

“GTTTGATCTTGGGTTCTAACCTGTTGCCT (site GTTTGCTCTAG)” and “GTTTGATCTTGGGTTCTAACCTGTTGCCT (site GTTTGGTCTAG)” are within 0.2 log units of each other in “recombinant barcode read abundance (log10)” value: 0.029 for the first, 0.212 for the second.

“GTTTGATCTTGGGTTCTAACCTGTTGCCT (site GTTTGTTCTAG)” and “GTTTGCCCTTGGGTTCTAACCTGTTGCTT (site GTTTGACCTAA)” are within 0.2 log units of each other in “recombinant barcode read abundance (log10)” value: 0 for the first, 0.0376 for the second.

“GTTTGCCCTTGGGTTCTAACCTGTTGCTT (site GTTTGCCCTAA)” and “GTTTGCCCTTGGGTTCTAACCTGTTGCTT (site GTTTGGCCTAA)” are within 0.2 log units of each other in “recombinant barcode read abundance (log10)” value: 0.0681 for the first, 0.0442 for the second.

“GTTTGCCCTTGGGTTCTAACCTGTTGCTT (site GTTTGTCCTAA)” and “GTTTGCTCTTGGGTTCTAACCTGTTGCCT (site GTTTGATCTAG)” are within 0.2 log units of each other in “recombinant barcode read abundance (log10)” value: 0.164 for the first, 0.0882 for the second.

Compared with “GTTTGCTCTTGGGTTCTAACCTGTTGCCT (site GTTTGCTCTAG)”, “GTTTGCTCTTGGGTTCTAACCTGTTGCCT (site GTTTGGTCTAG)” is lower in “recombinant barcode read abundance (log10)” value: 0.635 for the first, 0.416 for the second.

“GTTTGCTCTTGGGTTCTAACCTGTTGCCT (site GTTTGTTCTAG)” and “GTTTGTCCTTGGGTTCTAACCTGTTGCTT (site GTTTGACCTAA)” are within 0.2 log units of each other in “recombinant barcode read abundance (log10)” value: 0.115 for the first, 0.178 for the second.

First: GTTTGTCCTTGGGTTCTAACCTGTTGCTT (site GTTTGCCCTAA)
Second: GTTTGTCCTTGGGTTCTAACCTGTTGCTT (site GTTTGGCCTAA)
The “recombinant barcode read abundance (log10)” value of the first is lower: 0.0342 for the first, 0.644 for the second.

“GTTTGTCCTTGGGTTCTAACCTGTTGCTT (site GTTTGTCCTAA)” and “TAAAGGCCTTGGGTTCTAACCTGTTGCTA (site CAAAGGTCTTA)” are within 0.2 log units of each other in “recombinant barcode read abundance (log10)” value: 0.048 for the first, 0.218 for the second.

First: TAAAGGCCTTGGGTTCTAACCTGTTGCTA (site TAAAGGCCTTA)
Second: TAAAGGGCTTGGGTTCTAACCTGTTGCCT (site TAAAGGGCTAG)
The “recombinant barcode read abundance (log10)” value of the first is lower: 0.159 for the first, 0.4 for the second.

First: TAAAGGGCTTGGGTTCTAACCTGTTGCCT (site TAACGGGCTCG)
Second: TAAATAGCTTGGGTTCTAACCTGTTGCCT (site TAAATAGCTAG)
The “recombinant barcode read abundance (log10)” value of the first is lower: 0.0341 for the first, 0.881 for the second.

“TAAATAGCTTGGGTTCTAACCTGTTGCCT (site TAATTAGCTAG)” and “TAAATCCCTTGGGTTCTAACCTGTTGCGA (site ACGGAATCTCG)” are within 0.2 log units of each other in “recombinant barcode read abundance (log10)” value: 0.243 for the first, 0.0648 for the second.

“TAAATCCCTTGGGTTCTAACCTGTTGCGA (site TAAATCCCTTC)” and “TAACATACTTGGGTTCTAACCTGTTGCAT (site TAACATACTAT)” are the same in “recombinant barcode read abundance (log10)” value: 1.22 for the first, 1.22 for the second.

“TAACATACTTGGGTTCTAACCTGTTGCAT (site TAACCTACTAT)” and “TAACATACTTGGGTTCTAACCTGTTGCAT (site TAACGTACTAT)” are within 0.2 log units of each other in “recombinant barcode read abundance (log10)” value: 0.139 for the first, 0.233 for the second.
